Tested on: Hybrid 1, Hybrid 2 and Hybrid 3 corn
Assay: Long Grove, Ill., sprayed at V4, distance of growing point relative to soil surface (Examples 6 and 10)
Format: in vivo
Settings: for Distance of the growing point relative to the soil surface, 7 days post treatment / Distance of the growing point relative to the soil surface, 13 days post treatment / Distance of the growing point relative to the soil surface, 20 days post treatment / Distance of the growing point relative to the soil surface, 4 days post treatment: Table 7; for Distance of growing point relative to soil surface, 7 days post treatment / Distance of growing point relative to soil surface, 13 days post treatment / Distance of growing point relative to soil surface, 20 days post treatment / Distance of growing point relative to soil surface, 4 days post treatment: Table 12
Procedure: In this example, seeds of three varieties were sown at Long Grove, Ill. and were grown under similar conditions as in Examples 3 to 6. Three hybrid corn varieties were grown, Hybrid 1 and 2 as above, and Hybrid 3 which was another central corn belt variety requiring 111 days to maturity.
At the early V-stages, the growing point of the corn stem is below the soil surface and emerges from the soil when the plants are at V5 or later, depending on the variety. In spring, the soil is generally cooler than the air temperature. Therefore, there would be an advantage to getting the growing point above the soil surface to facilitate faster growth.
The plants were sprayed at the V4 growth stage. Plants were dug from the ground at days after spray. Stems of five plants per replicate, three replicates per treatment were split and the distance of the growing point relative to the soil surface was determined in mm.
Seeds of three varieties were sown at Long Grove, Ill. and were grown under similar conditions as in Example 8, above. Three hybrid corn varieties were grown, Hybrid 1 and 2 as described in Examples 8 and 9, above, and Hybrid 3 which was another central corn belt variety requiring 111 days to maturity. The plants were sprayed at the V4 growth stage. Plants were dug from the ground at days after spray. Stems of five plants per replicate, three replicates per treatment were split and the distance of the growing point relative to the soil surface was determined in mm. Results of this study are found in Table 12, below, describing distance of growing point relative to soil surface in millimeters.

For `C=C1C[C@]23C[C@@]1(O)CC[C@H]2[C@@]12C=C[C@H](O)[C@@](C)(C(=O)O1)[C@H]2[C@@H]3C(=O)O` [GA3, gibberellic acid], the “Distance of the growing point relative to the soil surface, 7 days post treatment” value (Hybrid 1, control 0:0 17.47) was 34.53 mm, the “Distance of the growing point relative to the soil surface, 13 days post treatment” value (Hybrid 1, control 0:0 166.40) was 163.27 mm and the “Distance of the growing point relative to the soil surface, 20 days post treatment” value (Hybrid 1, control 0:0 644.00) was 603.80 mm. The “Distance of the growing point relative to the soil surface, 4 days post treatment” value (Hybrid 1, control 0:0 −1.13) was 4.20 mm, the “Distance of growing point relative to soil surface, 7 days post treatment” value (Hybrid 1, control 0:0 17.47) was 34.53 mm and the “Distance of growing point relative to soil surface, 13 days post treatment” value (Hybrid 1, control 0:0 166.40) was 163.27 mm. The “Distance of growing point relative to soil surface, 20 days post treatment” value (Hybrid 1, control 0:0 644.00) was 603.80 mm, the “Distance of growing point relative to soil surface, 4 days post treatment” value (Hybrid 1, control 0:0 −1.13) was 4.20 mm and the “Distance of the growing point relative to the soil surface, 4 days post treatment” value (Hybrid 2, control 0:0 0.80) was 1.87 mm. For the same compound, the “Distance of the growing point relative to the soil surface, 7 days post treatment” value (Hybrid 2, control 0:0 18.80) was 24.07 mm, the “Distance of the growing point relative to the soil surface, 13 days post treatment” value (Hybrid 2, control 0:0 128.87) was 130.93 mm and the “Distance of the growing point relative to the soil surface, 20 days post treatment” value (Hybrid 2, control 0:0 517.13) was 515.53 mm. For the same compound, the “Distance of growing point relative to soil surface, 4 days post treatment” value (Hybrid 2, control 0:0 0.80) was 1.87 mm, the “Distance of growing point relative to soil surface, 7 days post treatment” value (Hybrid 2, control 0:0 18.80) was 24.07 mm and the “Distance of growing point relative to soil surface, 13 days post treatment” value (Hybrid 2, control 0:0 128.87) was 130.93 mm. The “Distance of growing point relative to soil surface, 20 days post treatment” value (Hybrid 2, control 0:0 517.13) was 515.53 mm, the “Distance of the growing point relative to the soil surface, 4 days post treatment” value (Hybrid 3, control 0:0 0.53) was 3.67 mm and the “Distance of the growing point relative to the soil surface, 7 days post treatment” value (Hybrid 3, control 0:0 25.60) was 27.87 mm. For the same compound, the “Distance of the growing point relative to the soil surface, 13 days post treatment” value (Hybrid 3, control 0:0 147.73) was 164.67 mm, the “Distance of the growing point relative to the soil surface, 20 days post treatment” value (Hybrid 3, control 0:0 619.33) was 653.53 mm and the “Distance of growing point relative to soil surface, 4 days post treatment” value (Hybrid 3, control 0:0 0.53) was 3.67 mm. The “Distance of growing point relative to soil surface, 7 days post treatment” value (Hybrid 3, control 0:0 25.60) was 27.87 mm, the “Distance of growing point relative to soil surface, 13 days post treatment” value (Hybrid 3, control 0:0 147.73) was 164.67 mm and the “Distance of growing point relative to soil surface, 20 days post treatment” value (Hybrid 3, control 0:0 619.33) was 653.53 mm.
